Measured values taken from patent US6762052B1, “DNA sequence encoding flavin-containing monooxygenase” (priority 1993, dated 2004).

Target: T1, glu158-HFMO3-MBP (Homo sapiens, UniProt P31513)
T1 sequence (P31513 2-532): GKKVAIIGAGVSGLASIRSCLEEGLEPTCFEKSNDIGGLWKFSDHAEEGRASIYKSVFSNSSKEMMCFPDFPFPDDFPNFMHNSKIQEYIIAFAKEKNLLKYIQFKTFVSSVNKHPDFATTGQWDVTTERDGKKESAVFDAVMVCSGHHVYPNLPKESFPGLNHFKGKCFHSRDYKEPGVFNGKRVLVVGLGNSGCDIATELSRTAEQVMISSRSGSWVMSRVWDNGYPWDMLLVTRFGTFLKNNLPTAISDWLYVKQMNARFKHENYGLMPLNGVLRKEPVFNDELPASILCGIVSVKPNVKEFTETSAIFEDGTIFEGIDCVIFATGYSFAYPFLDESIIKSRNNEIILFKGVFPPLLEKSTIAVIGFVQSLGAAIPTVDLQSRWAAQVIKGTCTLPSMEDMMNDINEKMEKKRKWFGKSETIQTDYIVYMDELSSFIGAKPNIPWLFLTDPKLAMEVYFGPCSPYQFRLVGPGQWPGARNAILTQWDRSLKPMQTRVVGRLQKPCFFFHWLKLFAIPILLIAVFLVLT
Test: Substrate oxygenation by glu158-HFMO3-MBP fusion protein, HPLC
Settings: glu158-HFMO3-MBP, N-oxygenation
Experimental: For HFMO3-MBP assay, all HFMO3-MBP incubations were done as follows: Into a test tube was added DETAPAC (1.2 mM, final concentration for a 250 μl reaction) followed by the addition of 60 μl NADPH generating system (0.4 mM NADP, 0.4 mM glucose-6-phosphate, and 20 μl of a 50 units mI^−1 glucose-6-phosphate dehydrogenase). The tube was chilled on ice and buffer and enzyme were added as described below for individual experiments to give a volume of 240 μl. The incubation was initiated by the addition of 5-DTP (10 μl of 5 mM) and placed in a shaking water bath at 37° C. for 10 min (unless specified otherwise). The incubation was stopped by the addition of 1.0 ml of ice-cold CH2Cl2. Following the addition of sodium carbonate (approx. 20 mg), the culture tube was vortexed, centrifuged (2000×g, 10 min), and the organic layer was removed and transferred to a 1.5 ml microfuge tube. The organic solvent was evaporated under a stream of Ar(g) to dryness and the residue was taken up in MeOH (300 μl) for determination HPLC analysis.
Data was analyzed with a Hitachi D-2500 integrator.
MTS-oxygenation assays were carried out under the same buffer, temperature, time and volume conditions, as for the N-oxygenation assays. The reactions were initiated upon addition of 10 μl of a 5 mM solution of MTS. The reaction was quenched with the addition of 700 μl of 80% CH3CN:20% hexane then 20 mg NaCl(s) and vortexed vigorously for 10 sec. The quenched reactions were then centrifuged briefly to separate the phases. The organic layer, containing product and substrate, was removed and used directly for HPLC analysis.
All other instruments used were the same as above for the N-oxygenation reactions. Conditions for elution were 50% CH3CN/H2O (v:v) with a flow rate gradient as follows: 1.5 ml min^−1 from 0 to 4 min., 1.5-2.5 ml min^−1 from 4 to 5 min, 2.5 ml min^−1 from 5 to 15 min.
Trimethylamine is commonly ingested in foodstuffs or it is available in the diet of humans from choline and other sources. Trimethylamine (TMA) is exclusively eliminated in humans by metabolism to trimethylamine N-oxide (TMANO). […]

Question: What does the source list for `CN(C)CCCCCN1c2ccccc2Sc2ccc(C(F)(F)F)cc21` [Compound 5]?
Answer: Km: 108 µM; Vmax (Lineweaver-Burke analysis): 15.8 nmole/min/nmol of flavin
